In US6933317B2, “PGD2 receptor antagonistic pharmaceutical compositions” (Shionogi & Co. Ltd., priority 2000, dated 2005):
pIC50: −log10 of the molar value.

Experiments:
PGD2 receptor [1] = molecular target: T1, PGD2 receptor (Homo sapiens, UniProt Q13258); test: Antagonistic activity against PGD2 receptor using human platelet (inhibition of PGD2-induced cAMP increase); assay type: cell-based; conditions: 0.1 μM PGD2, cAMP by radioimmunoassay, read-out: Inhibitory activity for the increase of cAMP caused by PGD2 in human platelet IC50
T1 construct: Peripheral blood was collected from a healthy volunteer; endogenous in cells; host or cells: washed human platelets from peripheral blood of a healthy volunteer
T1 sequence (Q13258 1-359): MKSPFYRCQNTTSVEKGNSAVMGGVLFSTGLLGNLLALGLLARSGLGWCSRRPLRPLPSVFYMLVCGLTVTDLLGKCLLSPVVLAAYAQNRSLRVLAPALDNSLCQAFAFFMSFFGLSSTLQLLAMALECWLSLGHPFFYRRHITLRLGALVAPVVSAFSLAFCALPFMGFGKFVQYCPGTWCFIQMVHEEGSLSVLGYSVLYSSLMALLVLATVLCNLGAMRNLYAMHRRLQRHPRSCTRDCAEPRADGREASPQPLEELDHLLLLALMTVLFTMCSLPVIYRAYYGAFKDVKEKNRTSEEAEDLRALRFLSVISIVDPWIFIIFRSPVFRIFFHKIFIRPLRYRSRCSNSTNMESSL
Protocol: Experiment 2 Evaluation of Antagonistic Activity Against PGD2 Receptor Using Human Platelet
Peripheral blood was collected from a healthy volunteer using a syringe in which 1/9 volume of a citric acid/dextrose solution was previously added. The sample was subjected to centrifugation at 1200 rpm for 10 min to obtain the supernatant (PRP: platelet rich plasma). The resultant PRP was washed 3 times with a washing buffer and the number of platelets was counted with a micro cell counter. A suspension adjusted to contain the platelets at a final concentration of 5×10^8/ml was warmed at 37° C., then subjected to the pre-treatment with 3-isobutyl-1-methylxanthine (0.5 mM) for 5 min. To the suspension was added a test compound diluted at various concentration, and 10 minutes later, 0.1 μM PGD2 was added to induce the reaction 2 minutes later, hydrochloric acid was added to terminate the reaction. The platelet was destroyed with an ultrasonic homogenizer. After centrifugation, the cAMP in the supernatant was determined by radioimmunoassay.

[2] = Change of plasma concentration of drug in rat (half life of the disappearance after intravenous administration); assay type: in vivo; conditions: Jcl-SD male rats, 0.5 to 2 mg/kg, plasma concentration of unchanged compound
Protocol: Experiment 3 Change of Plasma Concentration of Drug in Rat
Compound (0.5 to 2 mg/kg) was administered intravenously to Jcl-SD male rats. The concentration of the unchanged compound was measured at 2, 5, 15, 30, 60, 120, and 240 min after the administration by the use of HPLC (determination limit; 0.05 μg/ml) and LC/MS/MS (determination limit; 0.001 μg/ml) and the half life of the disappearance was calculated. [drawing 387]

PGD2 receptor [3] = molecular target: T1, PGD2 receptor; test: Binding activity to PGD2 receptor (human platelet membrane fraction, [3H]PGD2); conditions: 5 nM [3H]PGD2, 4° C., 90 min
Protocol: Experiment 1 Binding Activity to PGD2 Receptor
(1) Preparation of Human Platelet Membrane Fraction
Blood was collected using a plastic syringe containing 3.8% sodium citrate from the vein of healthy volunteers (adult male and female), then put into a plastic test tube and mixed by slow-reversion. The sample was then centrifuged at 1800 rpm, for 10 min at room temperature, and the supernatant containing PRP (platelet-rich plasma) was collected. The PRP was re-centrifuged at 2300 rpm, for 22 min at room temperature to obtain platelets. The platelets were homogenized using a homogenizer (Ultra-Turrax) followed by centrifugation 3 times at 20,000 rpm, 10 min at 4° C. to obtain a platelet membrane fraction. After protein determination, the membrane fraction was adjusted to 2 mg/ml and preserved in a refrigerator at −80° C. until using for the binding test.
(2) Binding to PGD2 Receptor
To a binding-reaction solution (50 mM Tris/HCl, pH 7.4, 5 mM MgCl2) (0.2 ml) were added the human platelet membrane fraction (0.1 mg) and 5 nM [^3H]PGD2 (115 Ci/mmol), and the mixture was reacted at 4° C. for 90 min. After the reaction, the mixture was filtered through a glass fiber filter paper and washed several times with cooled physiological saline, then the radioactivity retained on the filter paper was measured. The specific-binding ratio was calculated by subtracting the non-specific binding ratio which is the radioactivity similarly measured in the presence of 10 μM PGD2 from the total binding. The inhibitory activity of each compound was expressed as the concentration required for 50% inhibition (IC50), which was determined by depicting a substitution curve by plotting the binding ratio (%) in the presence of each compound, where the binding ratio in the absence of a test compound is 100%.

pIC50 (PGD2 receptor [1])	melting point	half-life [2]	pIC50 (PGD2 receptor [3])	SMILES
7.96				CC1(C)[C@H]2C[C@H](CCCCOCC(=O)O)[C@@H](NC(=O)c3csc4ccc(CNC(N)=O)cc34)[C@@H]1C2 [IIc-97]
7.72	143 to 144 °C			CC1(C)[C@H]2C[C@H](CCCCSCC(=O)O)[C@@H](NC(=O)c3cccc4ccsc34)[C@@H]1C2 [IIe-34]
		17 min		CC1(C)[C@H]2C[C@H](C/C=C\CCCC(=O)O)[C@@H](NC(=O)c3cccc4ccsc34)[C@@H]1C2 [Reference compound 2, reference compound]
8.10				CC1(C)[C@H]2C[C@H](CCCCOCC(=O)O)[C@@H](NC(=O)c3csc4ccc(NC(N)=O)cc34)[C@@H]1C2 [IIc-86]
8.43				CC1(C)[C@H]2C[C@H](CCCC/C=C/C(=O)O)[C@@H](NC(=O)c3csc4cc(O)ccc34)[C@@H]1C2 [IIa-22]
7.89	144 to 146 °C			CC1(C)[C@H]2C[C@H](CCCCOCC(=O)O)[C@@H](NC(=O)c3csc4ccc(F)cc34)[C@@H]1C2 [IIc-28]
7.96	155 to 157 °C			O=C(O)/C=C/CCCC[C@H]1[C@@H]2CC[C@@H](C2)[C@@H]1NC(=O)c1csc2ccccc12 [Ia-17]
8.00	149 to 151 °C			O=C(O)COCCCC[C@H]1[C@@H]2CC[C@@H](C2)[C@@H]1NC(=O)c1csc2ccc(O)cc12 [Ic-23]
8.24				CC1(C)[C@H]2C[C@H](CCCCSCC(=O)O)[C@@H](NC(=O)c3csc4cccc(O)c34)[C@@H]1C2 [IIe-24]
7.82				CC1(C)[C@H]2C[C@H](CCCC/C=C/C(=O)O)[C@@H](NC(=O)c3csc4ccccc34)[C@@H]1C2 [IIa-17]
7.77	197 to 199 °C			CC1(C)[C@H]2C[C@H](CCCCSCC(=O)O)[C@@H](NC(=O)c3csc4ccc(F)cc34)[C@@H]1C2 [IIe-28]
7.74		44.3 min		CC1(C)[C@H]2C[C@H](CCCCOCC(=O)O)[C@@H](NC(=O)c3ccsc3)[C@@H]1C2 [IIc-4]
7.82	87 to 90 °C			Cc1ccc2scc(C(=O)N[C@@H]3[C@@H](CCCCOCC(=O)O)C[C@H]4C[C@@H]3C4(C)C)c2c1 [IIc-20]
7.82				CC1(C)[C@H]2C[C@H](CCCC/C=C/C(=O)O)[C@@H](NC(=O)c3coc4cc(F)ccc34)[C@@H]1C2 [IIa-54]
8.60			7.48	CC1(C)[C@H]2C[C@H](CCCC/C=C/C(=O)O)[C@@H](NC(=O)c3csc4ccc(O)cc34)[C@@H]1C2 [IIa-23]
7.77	129 to 131 °C			Cc1ccc2scc(C(=O)N[C@H]3[C@H]4CC[C@H](C4)[C@@H]3CCCC/C=C/C(=O)O)c2c1 [Ia-20]
8.43	159 to 160 °C	16.7 min		CC1(C)[C@H]2C[C@H](CCCC/C=C/C(=O)O)[C@@H](NC(=O)c3coc4ccc(O)cc34)[C@@H]1C2 [IIa-52]
8.00			7.13	O=C(O)COCCCC[C@H]1[C@@H]2CC[C@@H](C2)[C@@H]1NC(=O)c1coc2ccc(O)cc12 [Ic-52]
8.22	164 to 166 °C			CC1(C)[C@H]2C[C@H](CCCCOCC(=O)O)[C@@H](NC(=O)c3csc4ccc(C(N)=O)cc34)[C@@H]1C2 [IIc-99]
7.96	95 to 96 °C	66.7 min		CC1(C)[C@H]2C[C@H](CCCCOCC(=O)O)[C@@H](NC(=O)c3cccc4ccsc34)[C@@H]1C2 [IIc-34]

pIC50 (PGD2 receptor [1])	melting point	half-life [2]	pIC50 (PGD2 receptor [3])	SMILES
8.31			8.02	CC1(C)[C@H]2C[C@H](CCCCOCC(=O)O)[C@@H](NC(=O)c3csc4ccc(O)cc34)[C@@H]1C2 [IIc-23]
8.00	76 to 79 °C			O=C(O)COCCCC[C@H]1[C@@H]2CC[C@@H](C2)[C@@H]1NC(=O)c1csc2cc(O)ccc12 [Ic-22]
8.52				CC1(C)[C@H]2C[C@H](CCCCOCC(=O)O)[C@@H](NC(=O)c3coc4ccc(NC(N)=O)cc34)[C@@H]1C2 [IIc-135]
		8.7 min		CC1(C)[C@H]2C[C@H](C/C=C\CCCC(=O)O)[C@@H](NC(=O)c3coc4ccc(O)cc34)[C@@H]1C2 [Reference compound 3]
7.72		21.6 min		CC1(C)[C@H]2C[C@H](CCCC/C=C/C(=O)O)[C@@H](NC(=O)c3ccsc3)[C@@H]1C2 [IIa-4]
8.10				Cc1cc(O)cc2c(C(=O)N[C@@H]3[C@@H](CCCCOCC(=O)O)C[C@H]4C[C@@H]3C4(C)C)coc12 [IIc-81]
7.89				CC1(C)[C@H]2C[C@H](CCCCOCC(=O)O)[C@@H](NC(=O)c3csc4cccc(O)c34)[C@@H]1C2 [IIc-24]
7.77				CC1(C)[C@H]2C[C@H](CCCC/C=C/C(=O)O)[C@@H](NC(=O)c3cc4ccsc4[nH]3)[C@@H]1C2 [IIa-66]
8.34				CC1(C)[C@H]2C[C@H](CCCCOCC(=O)O)[C@@H](NC(=O)c3csc4cc(O)ccc34)[C@@H]1C2 [IIc-22]
7.80				CC1(C)[C@H]2C[C@H](CCCC/C=C/C(=O)O)[C@@H](NC(=O)c3csc4ccc(F)cc34)[C@@H]1C2 [IIa-28]
8.30				CC1(C)[C@H]2C[C@H](CCCCOCC(=O)O)[C@@H](NC(=O)c3csc4cc(F)c(O)cc34)[C@@H]1C2 [IIc-128]
8.27	125 to 126 °C			CC1(C)[C@H]2C[C@H](CCCCOCC(=O)O)[C@@H](NC(=O)c3csc4ccccc34)[C@@H]1C2 [IIc-17]
8.09		23.4 min	8.46	CC1(C)[C@H]2C[C@H](CCCCOCC(=O)O)[C@@H](NC(=O)c3coc4ccc(O)cc34)[C@@H]1C2 [IIc-52]
7.74				O=C(O)/C=C/CCCC[C@H]1[C@@H]2CC[C@@H](C2)[C@@H]1NC(=O)c1cc2sccc2[nH]1 [Ia-65]
		8 min		CC1(C)[C@H]2C[C@H](C/C=C\CCCC(=O)O)[C@@H](NC(=O)c3ccsc3)[C@@H]1C2 [Reference compound 1, reference compound]
7.85	141 to 142 °C	34.6 min		CC1(C)[C@H]2C[C@H](CCCC/C=C/C(=O)O)[C@@H](NC(=O)c3cccc4ccsc34)[C@@H]1C2 [IIa-34]
8.32				CC1(C)[C@H]2C[C@H](CCCCSCC(=O)O)[C@@H](NC(=O)c3csc4cc(O)ccc34)[C@@H]1C2 [IIe-22]
7.70				CCOC(=O)Nc1ccc2scc(C(=O)N[C@@H]3[C@@H](CCCCC(=O)O)C[C@H]4C[C@@H]3C4(C)C)c2c1 [IIf-84]
7.77				CC1(C)[C@H]2C[C@H](CCCCOCC(=O)O)[C@@H](NC(=O)c3csc4ccc(CNS(C)(=O)=O)cc34)[C@@H]1C2 [IIc-96]
7.74				COc1cc2c(C(=O)N[C@@H]3[C@@H](CCCCOCC(=O)O)C[C@H]4C[C@@H]3C4(C)C)csc2cc1F [IIc-129]
